# Experimental data from PubChem BioAssay AID248 (DTP/NCI, 2004).
# Several values for one entry are separate records, joined by “and”; a condition that tells them apart may be missing. Identical values can stand only once. Toxic doses and inconclusive results are not listed.
# Tested on: L1210 leukemia ip in BDF1 mice, survival T/C
# Experiment: NCI In Vivo Anticancer Drug Screen. Data for tumor model L1210 Leukemia (intraperitoneal) in B6D2F1 (BDF1) mice
# Conditions: endpoint: mean survival time, higher = longer survival
# In short: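 Mice bearing the transplanted tumor received compound or vehicle. Survival of the treated group was divided by that of the vehicle-treated control group to give the ratio.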
# [1] = dose: 100.0 mg/kg/injection, schedule: Q04DX003 (ip), vehicle: saline with Tween-80
# [2] = dose: 200.0 mg/kg/injection, schedule: Q04DX003 (ip), vehicle: saline with Tween-80
# [3] = dose: 400.0 mg/kg/injection, schedule: Q04DX003 (ip), vehicle: saline with Tween-80
# [4] = dose: 75.0 mg/kg/injection, schedule: Q01DX001 (ip), vehicle: saline
# [5] = dose: 150.0 mg/kg/injection, schedule: Q01DX001 (ip), vehicle: saline
# [6] = dose: 300.0 mg/kg/injection, schedule: Q01DX001 (ip), vehicle: saline
# [7] = dose: 6.25 mg/kg/injection, schedule: Q01DX009 (ip), vehicle: Klucel (hydroxypropylcellulose) (HPC)
# [8] = dose: 100.0 mg/kg/injection, schedule: Q01DX001 (ip), vehicle: saline
# [9] = dose: 200.0 mg/kg/injection, schedule: Q01DX001 (ip), vehicle: saline
# [10] = dose: 400.0 mg/kg/injection, schedule: Q01DX001 (ip), vehicle: saline
# [11] = dose: 100.0 mg/kg/injection, schedule: Q01DX009 (ip), vehicle: saline with Tween-80
# [12] = dose: 200.0 mg/kg/injection, schedule: Q01DX009 (ip), vehicle: saline with Tween-80
# [13] = dose: 400.0 mg/kg/injection, schedule: Q01DX009 (ip), vehicle: saline with Tween-80
compound,measurement,setting,value
Cn1cnc([N+](=O)[O-])c1Sc1ncnc2c1ncn2C1OC(CO)C(O)C1O (centres undefined),T/C,"dose: 18.0 mg/kg/injection, schedule: Q01DX009 (ip), vehicle: saline",100 % of control
same,T/C,"dose: 35.0 mg/kg/injection, schedule: Q01DX009 (ip), vehicle: saline",108 % of control
same,T/C,"dose: 75.0 mg/kg/injection, schedule: Q04DX003 (ip), vehicle: Klucel (hydroxypropylcellulose) (HPC)",121 % of control
same,T/C,"dose: 110.0 mg/kg/injection, schedule: Q01DX009 (ip), vehicle: saline",152 % of control
same,T/C,"dose: 165.0 mg/kg/injection, schedule: Q01DX009 (ip), vehicle: saline",150 % of control
same,T/C,"dose: 176.0 mg/kg/injection, schedule: Q01DX009 (ip), vehicle: other",164 % of control
same,T/C,"dose: 250.0 mg/kg/injection, schedule: Q01DX009 (ip), vehicle: saline",154 % of control
same,T/C,"dose: 300.0 mg/kg/injection, schedule: Q04DX003 (ip), vehicle: Klucel (hydroxypropylcellulose) (HPC)",156 % of control
Nc1nc(N)c(-c2ccccc2)c(C=O)n1,T/C,[1],110 % of control
same,T/C,[2],117 % of control
same,T/C,[3],110 % of control
N\C([S-])=N/N=C\C(=N/N=C(\N)[S-])C(O)C(O)C(O)CO.[Rh+2] (centres undefined),T/C,"dose: 100.0 mg/kg/injection, schedule: Q04DX003 (ip), vehicle: other",106 % of control
same,T/C,"dose: 200.0 mg/kg/injection, schedule: Q04DX003 (ip), vehicle: other",93 % of control
same,T/C,"dose: 400.0 mg/kg/injection, schedule: Q04DX003 (ip), vehicle: other",98 % of control
CC1(C#N)CCC(CCc2ccccc2)C(=O)C1 (centres undefined),T/C,[4],109 % of control
same,T/C,"dose: 75.0 mg/kg/injection, schedule: Q01DX009 (ip), vehicle: saline",99 % of control
same,T/C,[5],95 % of control
same,T/C,"dose: 150.0 mg/kg/injection, schedule: Q01DX009 (ip), vehicle: saline",94 % of control
same,T/C,[6],92 % of control
same,T/C,"dose: 300.0 mg/kg/injection, schedule: Q01DX009 (ip), vehicle: saline",96 % of control
Oc1cc[c]([Hg][Cl])cc1,T/C,"dose: 12.5 mg/kg/injection, schedule: Q04DX003 (ip), vehicle: Klucel (hydroxypropylcellulose) (HPC)",105 % of control
same,T/C,"dose: 25.0 mg/kg/injection, schedule: Q04DX003 (ip), vehicle: Klucel (hydroxypropylcellulose) (HPC)",111 % of control
same,T/C,"dose: 50.0 mg/kg/injection, schedule: Q04DX003 (ip), vehicle: Klucel (hydroxypropylcellulose) (HPC)",99 % of control
CC(=O)[O][Pb]([CH2]C(C)C)([CH2]C(C)C)[CH2]C(C)C,T/C,"dose: 1.5 mg/kg/injection, schedule: Q01DX009 (ip), vehicle: Klucel (hydroxypropylcellulose) (HPC)",97 % of control
same,T/C,"dose: 3.0 mg/kg/injection, schedule: Q01DX001 (ip), vehicle: Klucel (hydroxypropylcellulose) (HPC)",91 % of control
same,T/C,"dose: 3.0 mg/kg/injection, schedule: Q01DX009 (ip), vehicle: Klucel (hydroxypropylcellulose) (HPC)",95 % of control
same,T/C,"dose: 6.0 mg/kg/injection, schedule: Q01DX001 (ip), vehicle: Klucel (hydroxypropylcellulose) (HPC)",96 % of control
same,T/C,"dose: 6.0 mg/kg/injection, schedule: Q01DX009 (ip), vehicle: Klucel (hydroxypropylcellulose) (HPC)",95 % of control
same,T/C,[7],96 % of control
same,T/C,"dose: 12.0 mg/kg/injection, schedule: Q01DX001 (ip), vehicle: Klucel (hydroxypropylcellulose) (HPC)",92 % of control
same,T/C,"dose: 12.5 mg/kg/injection, schedule: Q04DX002 (ip), vehicle: Klucel (hydroxypropylcellulose) (HPC)",96 % of control
CCOP(=O)(OCC)C1c2cc(Cl)ccc2-c2c(Cl)cc(Cl)cc21 (centres undefined),T/C,"dose: 15.0 mg/kg/injection, schedule: Q01DX001 (ip), vehicle: saline",103 % of control
same,T/C,"dose: 30.0 mg/kg/injection, schedule: Q01DX001 (ip), vehicle: saline",98 % of control
same,T/C,"dose: 60.0 mg/kg/injection, schedule: Q01DX001 (ip), vehicle: saline",103 % of control
Cc1ccc(S(=O)(=O)N(c2ccccc2-c2ccccc2)C(C)C(=O)O)cc1 (centres undefined),T/C,[8],98 % of control
same,T/C,[9],103 % of control
same,T/C,[10],102 % of control
Cc1nc2ccccc2n1C,T/C,[11],107 % of control
CC(C)C(CN)(CCN(C)C)c1cccc2ccccc12 (centres undefined),T/C,[1],88 % of control
COC(=O)C1C2CC3c4[nH]c5cc(OC)ccc5c4CCN3CC2CC(OC(=O)c2cc(OC)c(OC)c(OC)c2)C1OC (centres undefined),T/C,[7],94 % of control
same,T/C,"dose: 12.5 mg/kg/injection, schedule: Q01DX009 (ip), vehicle: Klucel (hydroxypropylcellulose) (HPC)",96 % of control
same,T/C,"dose: 25.0 mg/kg/injection, schedule: Q01DX009 (ip), vehicle: Klucel (hydroxypropylcellulose) (HPC)",105 % of control
same,T/C,"dose: 25.0 mg/kg/injection, schedule: Q04DX003 (ip), vehicle: saline",106 % of control
same,T/C,"dose: 50.0 mg/kg/injection, schedule: Q01DX009 (ip), vehicle: Klucel (hydroxypropylcellulose) (HPC)",113 % of control
same,T/C,"dose: 50.0 mg/kg/injection, schedule: Q04DX003 (ip), vehicle: saline",119 % of control
same,T/C,"dose: 100.0 mg/kg/injection, schedule: Q04DX003 (ip), vehicle: saline",111 % of control
Cn1c(C2=CC(=O)c3ccccc3C2=O)c(C2=CC(=O)c3ccccc3C2=O)c2ccccc21,T/C,"dose: 50.0 mg/kg/injection, schedule: Q01DX001 (ip), vehicle: saline",102 % of control
same,T/C,[8],98 % of control
same,T/C,[9],104 % of control
same,T/C,[10],102 % of control
CC1(C(=O)O)COC(=O)N1 (centres undefined),T/C,"dose: 25.0 mg/kg/injection, schedule: Q04DX002 (ip), vehicle: saline",96 % of control
same,T/C,"dose: 50.0 mg/kg/injection, schedule: Q04DX002 (ip), vehicle: saline",104 % of control
same,T/C,"dose: 100.0 mg/kg/injection, schedule: Q04DX002 (ip), vehicle: saline",86 % of control
COc1ccccc1NC(=O)NO,T/C,"dose: 100.0 mg/kg/injection, schedule: Q01DX001 (ip), vehicle: carboxymethylcellulose (CMC)",97 % of control
same,T/C,"dose: 200.0 mg/kg/injection, schedule: Q01DX001 (ip), vehicle: carboxymethylcellulose (CMC)",97 % of control
same,T/C,"dose: 400.0 mg/kg/injection, schedule: Q01DX001 (ip), vehicle: carboxymethylcellulose (CMC)",100 % of control
CCCC(CCC)CCCCC(CCC)CCC,T/C,[4],96 % of control
same,T/C,[5],96 % of control
same,T/C,[6],94 % of control
CCOC(=O)C1(C(=O)OCC)COC(=O)C2(CC)OC21 (centres undefined),T/C,[8],107 % of control
same,T/C,[9],98 % of control
same,T/C,[10],109 % of control
COc1cc([N+](=O)[O-])ccc1NC(=O)Oc1ccc2ccccc2c1,T/C,"dose: 100.0 mg/kg/injection, schedule: Q01DX009 (ip), vehicle: Klucel (hydroxypropylcellulose) (HPC)",98 % of control
same,T/C,"dose: 200.0 mg/kg/injection, schedule: Q01DX009 (ip), vehicle: Klucel (hydroxypropylcellulose) (HPC)",96 % of control
same,T/C,"dose: 400.0 mg/kg/injection, schedule: Q01DX009 (ip), vehicle: Klucel (hydroxypropylcellulose) (HPC)",100 % of control
CCCCn1nnc2c(NCCc3cnc[nH]3)nc(N)nc21,T/C,"dose: 50.0 mg/kg/injection, schedule: Q01DX009 (ip), vehicle: saline with Tween-80",93 % of control
same,T/C,[11],95 % of control
same,T/C,[1],89 % of control
same,T/C,[2],89 % of control
COc1ccc(Cl)cc1NC(=O)Oc1ccccn1,T/C,[11],89 % of control
same,T/C,"dose: 100.0 mg/kg/injection, schedule: Q04DX002 (ip), vehicle: saline with Tween-80",92 % of control and 97 % of control
same,T/C,[1],95 % of control
same,T/C,"dose: 200.0 mg/kg/injection, schedule: Q01DX001 (ip), vehicle: saline with Tween-80",89 % of control
same,T/C,[12],90 % of control and 91 % of control
same,T/C,"dose: 200.0 mg/kg/injection, schedule: Q04DX002 (ip), vehicle: saline with Tween-80",93 % of control and 102 % of control
same,T/C,[2],101 % of control
same,T/C,"dose: 400.0 mg/kg/injection, schedule: Q01DX001 (ip), vehicle: saline with Tween-80",92 % of control
same,T/C,[13],96 % of control
same,T/C,"dose: 400.0 mg/kg/injection, schedule: Q04DX002 (ip), vehicle: saline with Tween-80",95 % of control and 91 % of control
same,T/C,[3],101 % of control
Cc1ccc(S(=O)(=O)Nc2ccc3ncsc3c2[N+](=O)[O-])cc1,T/C,[11],108 % of control
same,T/C,[1],97 % of control
same,T/C,[12],93 % of control
same,T/C,[2],102 % of control
same,T/C,[13],103 % of control
same,T/C,[3],102 % of control
CCCCCCCCCCCCCCCCCCOc1ccc(Cl)cc1Cl,T/C,"dose: 100.0 mg/kg/injection, schedule: Q04DX002 (ip), vehicle: other",98 % of control
same,T/C,"dose: 200.0 mg/kg/injection, schedule: Q04DX002 (ip), vehicle: other",102 % of control
same,T/C,"dose: 400.0 mg/kg/injection, schedule: Q04DX002 (ip), vehicle: other",102 % of control
